Earlier results as cited in patent US6800456B2, “Modified forms of hepatitis C NS3 protease for facilitating inhibitor screening and structural studies of protease:inhibitor complexes” (Bristol-Myers Squibb Company, priority 1999, dated 2004).
pIC50: −log10 of the molar value. Square brackets hold non-standard residues; d marks the D form. Cha = N[C@@H](CC1CCCCC1)C(=O)O

Target: HCV protease (Hepatitis C virus genotype 1a, UniProt P26664)
Conditions: Ingallinella et al., Biochemistry 37, 8906-8914 (1998)

HCV protease, sequence (P26664 1027-1206 limits assumed, other chains not shown): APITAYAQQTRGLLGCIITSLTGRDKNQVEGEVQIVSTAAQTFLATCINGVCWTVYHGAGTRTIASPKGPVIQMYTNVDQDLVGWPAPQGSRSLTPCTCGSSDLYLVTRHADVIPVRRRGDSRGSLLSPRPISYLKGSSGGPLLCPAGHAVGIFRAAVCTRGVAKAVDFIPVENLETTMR

Substance: Ac-D[dE]LI[Cha]C-OH
- pIC50: 7.82
